# In ChEMBL document CHEMBL1949662, “JBIR-94 and JBIR-125, antioxidative phenolic compounds from Streptomyces sp. R56-07” (J Nat Prod, 2012):
# Tested on: Radical scavenging activity
# Experiment: Antioxidant activity assessed as DPPH free radical scavenging activity after 30 mins
# Assay type: functional
row,Structure (SMILES),IC50
1,CC(=O)NCCCCN(CCCNC(=O)CCc1ccc(O)cc1)C(=O)CCc1ccc(O)cc1,35.1 µM
2,COc1cc(CCC(=O)NCCCCNC(=O)CCc2ccc(O)c(OC)c2)ccc1O,11.4 µM
3,Cc1c(C)c2c(c(C)c1O)CC[C@@](C)(CCC[C@H](C)CCC[C@H](C)CCCC(C)C)O2 [ALPHA-TOCOPHEROL],9 µM
